Data: ChEMBL document CHEMBL1148363, “New, non-adenosine, high-potency agonists for the human adenosine A2B receptor with an improved selectivity profile compared to the reference agonist N-ethylcarboxamidoadenosine” (J Med Chem, 2004)

What was measured:
Adenosine receptor A3 = target: T1, Adenosine receptor A3 (Homo sapiens, UniProt P0DMS8); test: Binding affinity against human adenosine A3 receptor expressed on HEK293 cells using [125I]I-AB-MECA; type: cell-based
T1 sequence (P0DMS8 whole entry): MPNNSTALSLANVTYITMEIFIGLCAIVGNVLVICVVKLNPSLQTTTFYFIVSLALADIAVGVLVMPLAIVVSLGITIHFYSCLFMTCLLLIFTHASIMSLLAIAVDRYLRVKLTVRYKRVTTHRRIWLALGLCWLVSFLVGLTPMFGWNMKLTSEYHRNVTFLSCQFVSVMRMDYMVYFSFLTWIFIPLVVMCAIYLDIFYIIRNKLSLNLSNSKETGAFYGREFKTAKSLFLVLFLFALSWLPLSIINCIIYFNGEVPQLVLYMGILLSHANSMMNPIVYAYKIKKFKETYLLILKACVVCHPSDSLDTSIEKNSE

[1] = target: T2, Adenosine receptor A1 (Homo sapiens) (UniProt P30542); test: Inhibition of human adenosine A1 receptor in production of cAMP in CHO cells; type: functional, cell-based
T2 sequence (whole entry): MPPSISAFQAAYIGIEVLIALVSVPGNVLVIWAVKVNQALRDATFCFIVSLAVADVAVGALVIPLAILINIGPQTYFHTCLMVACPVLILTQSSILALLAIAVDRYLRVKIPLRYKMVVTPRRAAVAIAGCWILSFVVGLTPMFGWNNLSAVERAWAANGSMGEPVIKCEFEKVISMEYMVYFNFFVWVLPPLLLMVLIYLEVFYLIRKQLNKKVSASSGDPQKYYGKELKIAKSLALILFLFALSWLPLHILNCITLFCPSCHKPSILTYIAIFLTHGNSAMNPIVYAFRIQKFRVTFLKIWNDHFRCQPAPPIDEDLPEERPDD

Adenosine receptor A2a = Adenosine receptor A2a (Homo sapiens, UniProt P29274); test: biochemical
Sequence of Adenosine receptor A2a (P29274 whole entry): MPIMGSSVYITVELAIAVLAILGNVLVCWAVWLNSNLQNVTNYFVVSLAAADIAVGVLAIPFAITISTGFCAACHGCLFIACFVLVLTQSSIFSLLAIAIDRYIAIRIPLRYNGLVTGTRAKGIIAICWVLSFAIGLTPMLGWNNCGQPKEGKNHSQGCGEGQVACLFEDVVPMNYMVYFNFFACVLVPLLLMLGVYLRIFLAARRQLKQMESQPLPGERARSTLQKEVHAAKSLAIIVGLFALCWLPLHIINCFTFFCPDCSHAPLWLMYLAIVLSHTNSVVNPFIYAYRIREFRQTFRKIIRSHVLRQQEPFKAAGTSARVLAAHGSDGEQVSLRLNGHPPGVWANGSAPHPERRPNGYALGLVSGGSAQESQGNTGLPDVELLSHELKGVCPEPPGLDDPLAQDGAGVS
Description: Binding affinity against human adenosine A2A receptor expressed in HEK293 cells using [3H]ZM-241385

Adenosine receptor A2b = target: T3, Adenosine receptor A2b (Homo sapiens, UniProt P29275)
T3 sequence (P29275 whole entry): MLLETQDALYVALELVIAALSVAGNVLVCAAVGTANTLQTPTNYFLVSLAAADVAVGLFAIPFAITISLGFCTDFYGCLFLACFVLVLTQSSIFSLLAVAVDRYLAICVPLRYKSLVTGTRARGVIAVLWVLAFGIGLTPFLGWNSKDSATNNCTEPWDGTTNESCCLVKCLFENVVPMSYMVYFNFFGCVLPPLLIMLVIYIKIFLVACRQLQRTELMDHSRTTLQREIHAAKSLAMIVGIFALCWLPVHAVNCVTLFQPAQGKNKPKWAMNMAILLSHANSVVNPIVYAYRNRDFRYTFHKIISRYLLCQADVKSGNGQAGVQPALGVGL
Description: Agonistic activity against human adenosine A2B receptor expressed in CHO cells

[2] = target: T4, Adenosine receptor A3 (Homo sapiens) (UniProt P0DMS8); test: Inhibition of human adenosine A3 receptor in production of cAMP in CHO cells; type: functional, cell-based
T4 sequence (whole entry): T1 sequence (P0DMS8 whole entry)

Adenosine receptor A1 = target: T5, Adenosine receptor A1 (Homo sapiens, UniProt P30542); test: Binding affinity against human adenosine A1 receptor expressed in CHO cells using [3H]DPCPX; type: cell-based
T5 sequence (P30542 whole entry): T2 sequence (whole entry)

[3] = target: T6, Adenosine receptor A2b (Homo sapiens) (UniProt P29275); test: Stimulation of human adenosine A2B receptor in production of cAMP in CHO cells; type: functional, cell-based
T6 sequence (whole entry): T3 sequence (P29275 whole entry)

CHO = test: cells; details: Cricetulus griseus, read-out: pA2 (converted)

| Ki (Adenosine receptor A3) [nM] | Efficacy [1] [%] | Efficacy [2] [%] | Efficacy [3] [%] | Structure (SMILES) | Ki (Adenosine receptor A2a) [nM] | EC50 (Adenosine receptor A2b) [nM] | Ki (Adenosine receptor A1) [nM] | Kb (CHO) [nM] |
| --- | --- | --- | --- | --- | --- | --- | --- | --- |
| 74 | 80 | 39 | 68 | COc1cccc(-c2c(C#N)c(N)nc(SCc3ncc[nH]3)c2C#N)c1 | 105 | 34 | 2 | – |
| 538 | 103 | 23 | 74 | N#Cc1c(N)nc(SCc2ncc[nH]2)c(C#N)c1-c1ccc(O)cc1 | 28 | 12 | 2.6 | – |

The next lines start with the compound.

| Structure (SMILES) | Ki (Adenosine receptor A3) [nM] | Efficacy [1] [%] | Efficacy [2] [%] | Efficacy [3] [%] | Ki (Adenosine receptor A2a) [nM] | EC50 (Adenosine receptor A2b) [nM] | Ki (Adenosine receptor A1) [nM] | Kb (CHO) [nM] |
| --- | --- | --- | --- | --- | --- | --- | --- | --- |
| N#Cc1c(N)nc(SCc2ncc[nH]2)c(C#N)c1-c1ccccc1 | – | 109 | 84 | 81 | – | – | – | – |
| COc1ccc(-c2c(C#N)c(N)nc(SCc3ncc[nH]3)c2C#N)cc1 | – | 46 | 73 | 33 | 214 | 9 | 7 | – |
| Nc1nc2ccc(Cl)cc2c2nc(-c3ccco3)nn12 [CGS-15943] | – | – | – | – | – | – | – | 5.01 |
| N#Cc1c(N)nc(SCc2ncc[nH]2)c(C#N)c1-c1cccc(O)c1 | 104 | 112 | 95 | 92 | 21 | 10 | 4.4 | – |
